# Measured values taken from patent US12702654B2, “Compositions and methods for treating homocystinuria and other conditions using polyamines” (THE REGENTS OF THE UNIVERSITY OF COLORADO, priority 2020, dated 2026).
# How the values were obtained:
# MAT1A = test: Western blotting of hepatic MAT1A expression; type: in vivo, mouse; conditions: HO HCU mice, 30 g/l in drinking water ad libitum, one week
# Experimental: (§1) To investigate the effects of these treatments upon the hepatic regulatory changes in enzyme expression induced by HCU, the human transgenic HO mouse model of HCU was used. In brief, experimental groups consisting of 8 HO mice on a C57BL/6J background and 8 C57BL/6J WT littermate control mice bred in house were used. Mice in both groups were male and aged between 3 and 4 months. Except where otherwise stated, all mice were maintained on standard chow. All diets were administered using a paired-feeding design to ensure isocaloric intake between all experimental groups and body weights were measured once per week. There was no significant difference in body weight between mice in any of the experimental groups. Betaine and taurine were in this example, both administered by dissolving these compounds in drinking water at 30 g/l ([…] 3% w/v) and were supplied ad libitum for one week. Treatment water was replenished twice per week.
# These observations are the first to report betaine and taurine acting to regulate expression of these processes. Therefore, this observation supports that taurine alone or in combination with betaine and other treatments for genetic homocystinuria are viable options for avoiding dietary restraints and treating these conditions.
# HO HCU mice = conditions: earlier study, cited from earlier work
# [1] = tested on: mouse model of MTR deficient homocystinuria; test: tHcy in mouse model of MTR deficient homocystinuria; type: in vivo; conditions: betaine supplementation
# Description: In the following exemplary experiments, it was observed that betaine supplementation was limited as observed in a mouse model of MTR deficient homocystinuria. As noted in FIG. 1, homocystinuria can occur due to defects in the Hcy remethylation enzymes MTR or MTHFR. It was observed that supplementation of betaine in certain experiments with a mouse model of MTR deficient homocystinuria lead to reduction of tHcy of approximately 25% having little effect on the condition. This modest decrease in betaine mediated treatment of MTR deficient homocystinuria has also been observed in human patients with this form of homocystinuria.
# DHFR = test: Western blotting of hepatic DHFR protein levels; type: in vivo, mouse; conditions: HO mice, betaine treated; not restored to control levels
# Experimental: In other exemplary experiments, levels of DHFR were assessed using the HO mouse model in untreated and betaine treated mice. […] In addition, level of intensity of DHFR for wild type (WT), treated (HO+betaine) and untreated mice (HO) using the HCU mouse model was examined (FIG. 4B). It was noted that the level of DHFR in betaine treated mice was not restored to control levels and only about a 5-10% improvement was observed (FIG. 4B). (See FIGS. 4A-4B). As noted herein, Western blotting analysis of hepatic DHFR protein levels in WT and HO HCU mice. N=9 per group.
# SAHH = test: Western blotting of hepatic SAHH expression; type: in vivo, mouse; conditions: HO mice, 30 g/l in drinking water ad libitum, one week
# Experimental: as §1
# Western blotting analysis of SAHH, MTHFR and SHMT2 expression was performed in liver samples from HO mice in the presence and absence of betaine or taurine treatment.
# BHMT = test: Hepatic BHMT protein during long-term betaine treatment; type: in vivo, mouse
smiles,measurement,setting,value
"C[N+](C)(C)CC(=O)O [betaine, N,N,N-trimethylglycine]",hepatic MAT1a expression,MAT1A,induced expression
same,hypercoagulative phenotype after a longer period of treatment,"HO HCU mice; HCU mice, longer period of betaine treatment",return to the hypercoagulative phenotype
same,hypercoagulative phenotype,"HO HCU mice; mouse model of HCU, betaine treatment",significantly ameliorated the hypercoagulative phenotype
same,reduction of tHcy,[1],approximately 25%
same,improvement of hepatic DHFR level,DHFR,5-10%
same,HCU-mediated induction of hepatic SAHH expression,SAHH,completely reversed
same,BHMT protein levels,BHMT,significantly higher levels of BHMT protein
same,BHMT as share of total hepatic protein,BHMT; approximately 2% without,8-10%
